Results from ChEMBL document CHEMBL2390930, “Design, synthesis and evaluation of 1,2-benzisothiazol-3-one derivatives as potent caspase-3 inhibitors” (Bioorg Med Chem, 2013).

biological target: T1, Caspase-3 (Homo sapiens, UniProt P42574); experiment: Inhibition of recombinant human caspase-3 using Ac-LDEVD-AMC as substrate assessed as accumulation of 7-AMC incubated for 10 mins followed by substrate addition measured for 10 mins by fluorimetric analysis
T1 sequence (P42574 whole entry): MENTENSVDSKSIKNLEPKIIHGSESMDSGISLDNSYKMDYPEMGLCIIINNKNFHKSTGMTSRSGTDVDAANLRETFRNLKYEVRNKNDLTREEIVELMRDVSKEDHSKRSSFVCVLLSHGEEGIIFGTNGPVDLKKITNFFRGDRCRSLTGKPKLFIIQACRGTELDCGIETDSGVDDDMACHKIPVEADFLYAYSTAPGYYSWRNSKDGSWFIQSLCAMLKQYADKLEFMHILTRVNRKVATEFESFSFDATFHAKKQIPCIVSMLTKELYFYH

Row | SMILES | IC50 [nM]
1 | O=c1c2ccccc2sn1-c1ccccc1 | 533
2 | O=C(Nc1ccc(I)cc1)n1sc2ccccc2c1=O | > 100000
3 | Cn1sc2ccccc2c1=O | 42400
4 | Cc1ccc(-n2sc3ccccc3c2=O)cc1 | 466
5 | O=C(NCc1ccccc1)n1sc2ccccc2c1=O | 86
